According to paper PMC6328172, “5-HT2 receptor binding, functional activity and selectivity in N-benzyltryptamines” (PLoS ONE, 2019):
Where “and” joins values, the source holds several entries; their conditions need not be identical. Equal entries are not always repeated. Where two headings read alike, the source gives them in different places.

Assays:
head twitch response [1] = assay: Mouse head twitch response (HTR) assay (literature); format: in vivo; conditions: from the HTR ED50 values
5-HT2A receptor [2] = conditions: described by Nichols; cited from earlier work
head twitch response [3] = conditions: cited from earlier work
human 5-HT2A receptor [4] = target: T1, human 5-HT2A receptor (Homo sapiens, UniProt P28223); assay: Competition binding to the human 5-HT2A receptor ([3H]ketanserin, CHO-5-HT2A membranes)
T1 construct: expressed in transfected cells; host or cells: CHO (CHO-5-HT2A cell line)

human 5-HT2C receptor [5] = target: T2, human 5-HT2C receptor (Homo sapiens, UniProt P28335); assay: Competition binding to the human 5-HT2C receptor ([3H]mesulergine, HeLa-5-HT2C membranes)
T2 construct: expressed in transfected cells; host or cells: HeLa (HeLa-5-HT2C cell line)
T2 sequence (P28335 33-458): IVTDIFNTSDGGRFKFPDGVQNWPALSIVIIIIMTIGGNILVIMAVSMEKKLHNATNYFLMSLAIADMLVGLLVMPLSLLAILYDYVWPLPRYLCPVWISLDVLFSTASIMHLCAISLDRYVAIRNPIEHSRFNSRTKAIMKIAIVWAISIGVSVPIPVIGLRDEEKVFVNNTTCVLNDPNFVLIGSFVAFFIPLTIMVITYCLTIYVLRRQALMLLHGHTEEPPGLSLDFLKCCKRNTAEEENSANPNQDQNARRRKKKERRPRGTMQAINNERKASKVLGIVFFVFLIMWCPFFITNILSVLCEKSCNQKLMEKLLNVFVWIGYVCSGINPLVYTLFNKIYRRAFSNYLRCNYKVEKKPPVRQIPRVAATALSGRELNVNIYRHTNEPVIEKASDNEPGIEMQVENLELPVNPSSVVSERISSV

human 5-HT2A receptor [6] = target: T1, human 5-HT2A receptor; assay: Ca2+ mobilization in CHO h5-HT2A cells; format: cell-based
human 5-HT2C receptor [7] = target: T2, human 5-HT2C receptor; assay: Ca2+ mobilization in HeLa h5-HT2C cells; format: cell-based
5-HT2A receptor [8] = conditions: described by Nichols; cited from earlier work; remark: listed apart in the source
human 5-HT2B receptor = human 5-HT2B receptor (Homo sapiens, UniProt P41595); assay: Competition binding to the human 5-HT2B receptor ([3H]LSD, CHO-5-HT2B membranes)
5-HT2A receptor [9] = target: 5-HT2A receptor; set-up: method as in PMID 27216487; conditions: reported affinity; cited from earlier work
5-HT2C receptor [10] = target: 5-HT2C receptor; set-up: method as in PMID 27216487; conditions: reported affinity; cited from earlier work
5-HT2A receptors = conditions: cited from earlier work
5-HT2C receptor [11] = conditions: cited from earlier work
[12] = relative efficacy, % of response to 5-HT

T1 sequence (P28223 whole entry): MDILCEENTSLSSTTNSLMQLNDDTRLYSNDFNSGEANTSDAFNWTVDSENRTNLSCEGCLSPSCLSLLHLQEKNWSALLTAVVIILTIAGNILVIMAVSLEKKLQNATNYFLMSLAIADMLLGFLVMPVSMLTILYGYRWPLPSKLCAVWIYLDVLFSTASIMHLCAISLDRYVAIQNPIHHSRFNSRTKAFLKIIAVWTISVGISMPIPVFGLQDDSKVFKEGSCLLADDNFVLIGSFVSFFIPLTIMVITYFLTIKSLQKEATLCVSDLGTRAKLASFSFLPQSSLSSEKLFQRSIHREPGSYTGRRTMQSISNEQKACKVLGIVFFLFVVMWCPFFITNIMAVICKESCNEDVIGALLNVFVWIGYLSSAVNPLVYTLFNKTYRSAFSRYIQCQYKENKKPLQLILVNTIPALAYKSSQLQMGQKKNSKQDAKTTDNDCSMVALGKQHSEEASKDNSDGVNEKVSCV
Sequence of human 5-HT2B receptor (P41595 whole entry): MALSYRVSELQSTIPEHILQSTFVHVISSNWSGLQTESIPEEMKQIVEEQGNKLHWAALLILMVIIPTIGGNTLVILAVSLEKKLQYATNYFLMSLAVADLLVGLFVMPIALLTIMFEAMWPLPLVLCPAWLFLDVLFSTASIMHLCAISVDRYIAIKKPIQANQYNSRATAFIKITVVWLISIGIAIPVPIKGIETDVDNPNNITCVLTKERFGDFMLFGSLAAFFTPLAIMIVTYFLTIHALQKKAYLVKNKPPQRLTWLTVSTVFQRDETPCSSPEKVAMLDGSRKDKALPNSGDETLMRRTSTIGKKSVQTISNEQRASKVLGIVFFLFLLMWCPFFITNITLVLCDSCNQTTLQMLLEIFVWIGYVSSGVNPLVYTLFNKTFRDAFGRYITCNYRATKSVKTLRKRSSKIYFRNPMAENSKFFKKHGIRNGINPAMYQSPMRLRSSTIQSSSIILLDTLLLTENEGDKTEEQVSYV

Compound: COc1cc(CCNCc2ccccc2OC)c(OC)cc1I [Compound 25I-NBOMe, 4-iodo-2,5-dimethoxy-N-(2-methoxybenzyl)phenethylamine, reference compound]
- fold higher in vivo potency (HTR) than compound 38 (head twitch response [1]): 40 fold
- Ki (5-HT2A receptor [2]): 0.52 nM
- ED50 in the mouse head twitch response (HTR) assay (head twitch response [3]): 0.078 mg/kg

Compound: COc1ccc2[nH]cc(CCNCc3ccccc3OC)c2c1 [Compound 38, N-(2-Methoxybenzyl)-[2-(5-methoxy-1H-indol-3-il)ethyl]amine]
- Selectivity 5-HT2A/2C (binding) (human 5-HT2A receptor [4]; from Ki values, Table 1): 1.55
- Ki (human 5-HT2A receptor [4]; human receptor, [3H]ketanserin displacement, no unit in the table, nM, read-out: 5-HT2A Ki (in parentheses) (converted)): 44.7 nM
- Selectivity 5-HT2C/2A (binding, in parentheses) (human 5-HT2C receptor [5]; from Ki values, Table 1): 0.65
- Ki (human 5-HT2C receptor [5]; human receptor, [3H]mesulergine displacement, no unit in the table, nM, read-out: 5-HT2C Ki (in parentheses) (converted)): 69.2 nM
- 5-HT2A pEC50 (human 5-HT2A receptor [6]; Ca2+ mobilization, pEC50 ± SEM): 8.70 ± 0.20
- EC50 (human 5-HT2A receptor [6]; Ca2+ mobilization, no unit in the table, nM, read-out: 5-HT2A EC50 (in parentheses) (converted)): 2 nM and 1.99 nM
- Selectivity 5-HT2A/2C (functional) (human 5-HT2A receptor [6]; from EC50 values, Table 2): 1.91
- 5-HT2A % Emax (human 5-HT2A receptor [6]; [12]): 83.66 ± 3.42%
- Emax (human 5-HT2A receptor [6]; [12]): 84%
- EC50 (human 5-HT2C receptor [7]; Ca2+ mobilization, no unit in the table, nM, read-out: 5-HT2C EC50 (in parentheses) (converted)): 3.8 nM
- Emax (human 5-HT2C receptor [7]; HeLa, read-out: 5-HT2C % Emax): 88.7 ± 4.22%
- Selectivity 5-HT2C/2A (functional, in parentheses) (human 5-HT2C receptor [7]; from EC50 values, Table 2): 0.53
- Ki (5-HT2A receptor [2]): 16.6 nM
- 5-HT2A Emax (5-HT2A receptor [8]): 81%
- EC50 (5-HT2A receptor [8]): 1.9 nM
- ED50 in the mouse head twitch response (HTR) assay (head twitch response [3]): 3.15 mg/kg
- Ki (human 5-HT2B receptor): 15.9 nM

Compound: COc1ccc2[nH]cc(CCN(C)C(C)C)c2c1 [N-isopropyl-N-methyl-5-methoxytryptamine]
- Ki (5-HT2A receptor [9]): 165 nM
- Ki (5-HT2C receptor [10]): 1300 nM

Compound: C[C@H]1CNCCc2ccc(Cl)cc21 [lorcaserin, 1(R)-8-chloro-1-methyl.2,3,4,5-tetrahydro-(1H)-3-benzazepine]
- pEC50(2A) (5-HT2A receptors; Fig 6): 6.8
- efficacy at 5-HT2A receptors (5-HT2A receptors; partial agonist): about 70%
- agonist character at 5-HT2C (in words) (5-HT2C receptor [11]): full 5-HT2C agonist
